Measurements: PubChem BioAssay AID1963861 (Molecular Pharmacology Branch, DTP, NCI, 2024)
Several values for one entry are separate records, joined by “and”; a condition that tells them apart may be missing. Identical values can stand only once.

System: 885724-159-R-J1-PDC KRAS PDC multicell spheroid viability
Experiment: Anticancer human tumor 885724-159-R-J1-PDC patient-derived pancreatic adenocarcinoma cell line growth inhibition [KRAS2]
Conditions: for viability, T/C: stronger effect = lower value
From the text: Multicellular complex tumor spheroid response to RAS pathway inhibitors in combination with a targeted agents in patient-derived cell lines with oncogenic KRAS variants from multiple cancer types
A high-throughput screen of multi-cell type tumor spheroids was designed to identify active combinations of targeted small molecules and KRAS pathway inhibitors. Complex spheroids include a stromal component modeled by human endothelial cells (HUVEC) and fibroblasts modeled by human mesenchymal stem cells (MSCs). The concentration ranges selected for each drug and investigational agent were based upon clinically achievable concentrations if the clinical Cmax of the agent was known.
Compounds. The drugs and investigational agents: BI-3406 (NSC825286), BAY-293 (NSC824723), batoprotafib (TNO155; NSC825523), sotorasib (AMG 510; NSC818433), MRTX1257 (NSC819558), elimusertib (BAY 1895344; NSC800525), molibresib (GSK525762; NSC774829), temuterkib (LY3214996; NSC803410), venetoclax (NSC766270), alisertib (NSC759677), olaparib (NSC753686), talazoparib (NSC767125), erdafitinib (NSC781556), ipatasertib (NSC767898), cabozantinib (NSC761068), nintedanib (NSC756659), abemaciclib (NSC768073), docetaxel (NSC628503), trametinib (NSC758246), and sapanisertib (NSC764658) were obtained from the National Cancer Institute (NCI) Developmental Therapeutics Program Chemical Repository. The FDA-approved anticancer drug set is available from the Developmental Therapeutics Program. […] The stock solutions were prepared in dimethyl sulfoxide (DMSO, Sigma-Aldrich, St. Louis, MO, cat. D2650) at 800-fold the tested concentration and stored at -70 degrees C prior to their use. All drugs and investigational agents were tested over a range starting from a high concentration at or near the clinical Cmax and decreasing in half-log increments. If the clinical Cmax for an agent had not been determined, the highest concentration tested was 10 microM.
Cell Culture. All cells were maintained in an incubator at 37 degrees C and 5% CO2 with 95% humidity. The PDC lines were cultured according to standard operating procedures established by the NCI PDMR (https://pdmr.cancer.gov/sops/default.htm). Briefly, all PDCs were thawed and cultured in Matrigel-coated flasks prepared with a working solution of 1X Ham's F-12 nutrient mix, without supplementation (Invitrogen, Waltham, MA, cat. 11765054), 100 U/mL penicillin-streptomycin (Invitrogen, cat. 15140122), and 2.5% Matrigel (Corning Inc., Corning, NY, cat. 354248) for the first three passages. All PDCs were cultured in complete DMEM/F-12 media containing advanced DMEM/F-12 (Invitrogen, cat. 12634028), 4.9% defined fetal bovine serum, heat inactivated (HyClone Laboratories Inc., Logan, UT, cat. SH30070.03HI), 389 ng/mL hydrocortisone (Sigma-Aldrich, cat. H4001), 9.7 ng/mL human EGF recombinant protein (Invitrogen, cat. PHG0313), 23.4 microg/mL adenine (Sigma-Aldrich, cat. A2786), 97.3 U/mL penicillin-streptomycin (Invitrogen, cat. 15140122), 1.9 mM L-glutamine (Invitrogen, cat. 25030081), and 9.7 microM Y-27632 dihydrochloride (Tocris Bioscience, Bristol, United Kingdom, cat. 1254). The PDCs were cultured in complete DMEM/F12 media without 9.7 microM Y-27632 dihydrochloride for at least two passages prior to the screen. The established cell line HOP-62 was cultured in RPMI 1640 medium, HEPES (Invitrogen, cat. 22400105) with 10% defined fetal bovine serum (HyClone Laboratories Inc., cat. SH30070.03) and 2 mM L-glutamine (Invitrogen, cat. 25030081). The pooled donor HUVEC were cultured in endothelial cell growth medium 2 (PromoCell, Heidelberg, Germany, cat. C-22011) and the hMSC were cultured in mesenchymal stem cell growth medium 2 (PromoCell, cat. C-28009). For all experiments, HUVEC and hMSC were used at passages </=5, while the malignant cell lines were used at passages </=15. […]

[1] = curve of first compound, second compound 0.1 µM
[2] = curve of first compound, second compound 0.316 µM
[3] = curve of first compound, second compound 1 µM
[4] = curve of first compound, second compound 3.16 µM
[5] = curve of first compound, second compound 10 µM
[6] = second compound 0.1 µM, first compound 0.0316 µM
[7] = second compound 0.1 µM, first compound 0.1 µM
[8] = second compound 0.1 µM, first compound 0.316 µM
[9] = second compound 0.1 µM, first compound 1 µM
[10] = second compound 0.1 µM, first compound 3.16 µM
[11] = second compound 0.1 µM, first compound 10 µM
[12] = second compound 0.316 µM, first compound 0.0316 µM
[13] = second compound 0.316 µM, first compound 0.1 µM
[14] = second compound 0.316 µM, first compound 0.316 µM
[15] = second compound 0.316 µM, first compound 1 µM
[16] = second compound 0.316 µM, first compound 3.16 µM
[17] = second compound 0.316 µM, first compound 10 µM
[18] = second compound 1 µM, first compound 0.0316 µM
[19] = second compound 1 µM, first compound 0.1 µM
[20] = second compound 1 µM, first compound 0.316 µM
[21] = second compound 1 µM, first compound 1 µM
[22] = second compound 1 µM, first compound 3.16 µM
[23] = second compound 1 µM, first compound 10 µM
[24] = second compound 3.16 µM, first compound 0.0316 µM
[25] = second compound 3.16 µM, first compound 0.1 µM
[26] = second compound 3.16 µM, first compound 0.316 µM
[27] = second compound 3.16 µM, first compound 1 µM
[28] = second compound 3.16 µM, first compound 3.16 µM
[29] = second compound 3.16 µM, first compound 10 µM
[30] = second compound 10 µM, first compound 0.0316 µM
[31] = second compound 10 µM, first compound 0.1 µM
[32] = second compound 10 µM, first compound 0.316 µM
[33] = second compound 10 µM, first compound 1 µM
[34] = second compound 10 µM, first compound 3.16 µM
[35] = second compound 10 µM, first compound 10 µM
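Note: spheroids exposed to agents for 7 days before readout.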

O=C(c1cc(Cc2n[nH]c(=O)c3ccccc23)ccc1F)N1CCN(C(=O)C2CC2)CC1 + CNCc1ccccc1-c1csc(C(C)Nc2nc(C)nc3cc(OC)c(OC)cc23)c1
IC50 [1]: > 10 µM
IC50 [2]: > 10 µM
IC50 [3]: > 10 µM
IC50 [4]: < 0.0316 µM
IC50 [5]: < 0.0316 µM
viability, T/C [6]: 110%
viability, T/C [7]: 112%
viability, T/C [8]: 98.4%
viability, T/C [9]: 101%
viability, T/C [10]: 96.2%
viability, T/C [11]: 84.7%
viability, T/C [12]: 107%
viability, T/C [13]: 107%
viability, T/C [14]: 103%
viability, T/C [15]: 96.4%
viability, T/C [16]: 94.6%
viability, T/C [17]: 81.7%
viability, T/C [18]: 105%
viability, T/C [19]: 112%
viability, T/C [20]: 104%
viability, T/C [21]: 95.7%
viability, T/C [22]: 91.9%
viability, T/C [23]: 81.8%
viability, T/C [24]: 1.34%
viability, T/C [25]: 1.56%
viability, T/C [26]: 0.78%
viability, T/C [27]: 0.88%
viability, T/C [28]: 1%
viability, T/C [29]: 1.09%
viability, T/C [30]: 0.23%
viability, T/C [31]: 0.26%
viability, T/C [32]: 0.21%
viability, T/C [33]: 0.28%
viability, T/C [34]: 0.28%
viability, T/C [35]: 0.68%

CC1(C)CCC(CN2CCN(c3ccc(C(=O)NS(=O)(=O)c4ccc(NCC5CCOCC5)c([N+](=O)[O-])c4)c(Oc4cnc5[nH]ccc5c4)c3)CC2)=C(c2ccc(Cl)cc2)C1 + C=CC(=O)N1CCN(c2nc(=O)n(-c3c(C)ccnc3C(C)C)c3nc(-c4c(O)cccc4F)c(F)cc23)C(C)C1
IC50 [1]: 7.09 µM
IC50 [2]: 7.14 µM
IC50 [3]: 5.36 µM
IC50 [4]: 9.7 µM
IC50 [5]: 5.48 µM
viability, T/C [6]: 111%
viability, T/C [7]: 118%
viability, T/C [8]: 114%
viability, T/C [9]: 108%
viability, T/C [10]: 91.2%
viability, T/C [11]: 32.3%
viability, T/C [12]: 117%
viability, T/C [13]: 114%
viability, T/C [14]: 111%
viability, T/C [15]: 114%
viability, T/C [16]: 89.3%
viability, T/C [17]: 33.8%
viability, T/C [18]: 122%
viability, T/C [19]: 117%
viability, T/C [20]: 118%
viability, T/C [21]: 112%
viability, T/C [22]: 72.8%
viability, T/C [23]: 23.1%
viability, T/C [24]: 109%
viability, T/C [25]: 120%
viability, T/C [26]: 113%
viability, T/C [27]: 114%
viability, T/C [28]: 80.8%
viability, T/C [29]: 49.2%
viability, T/C [30]: 91.1%
viability, T/C [31]: 68.7%
viability, T/C [32]: 76.9%
viability, T/C [33]: 77.8%
viability, T/C [34]: 65.3%
viability, T/C [35]: 33%

Cn1nccc1Nc1nccc(-c2cc3c(s2)C(C)(C)N(CCN2CCOCC2)C3=O)n1
viability, T/C (compound 0.0316 µM): 99.9% and 99.7%
viability, T/C (compound 0.1 µM): 86.3% and 84.2%
viability, T/C (compound 0.316 µM): 59.1% and 65.2%
viability, T/C (compound 1 µM): 45.5% and 45.8%
viability, T/C (compound 3.16 µM): 35.7% and 37.9%
viability, T/C (compound 10 µM): 31.1% and 35.9%
IC50 (curve of compound): 0.665 µM and 0.799 µM

Cn1ncnc1[C@H]1c2n[nH]c(=O)c3cc(F)cc(c23)N[C@@H]1c1ccc(F)cc1 + CNCc1ccccc1-c1csc(C(C)Nc2nc(C)nc3cc(OC)c(OC)cc23)c1
IC50 [1]: > 0.1 µM
IC50 [2]: > 0.1 µM
IC50 [3]: > 0.1 µM
IC50 [4]: < 0.000316 µM
IC50 [5]: < 0.000316 µM
viability, T/C (second compound 0.1 µM, first compound 0.000316 µM): 100%
viability, T/C (second compound 0.1 µM, first compound 0.001 µM): 104%
viability, T/C (second compound 0.1 µM, first compound 0.00316 µM): 88.8%
viability, T/C (second compound 0.1 µM, first compound 0.01 µM): 99.5%
viability, T/C [6]: 80.2%
viability, T/C [7]: 80%
viability, T/C (second compound 0.316 µM, first compound 0.000316 µM): 92.6%
viability, T/C (second compound 0.316 µM, first compound 0.001 µM): 89.2%
viability, T/C (second compound 0.316 µM, first compound 0.00316 µM): 84.1%
viability, T/C (second compound 0.316 µM, first compound 0.01 µM): 98%
viability, T/C [12]: 77.4%
viability, T/C [13]: 71.3%
viability, T/C (second compound 1 µM, first compound 0.000316 µM): 82.5%
viability, T/C (second compound 1 µM, first compound 0.001 µM): 83.4%
viability, T/C (second compound 1 µM, first compound 0.00316 µM): 91.2%
viability, T/C (second compound 1 µM, first compound 0.01 µM): 78.5%
viability, T/C [18]: 74.2%
viability, T/C [19]: 76.9%
viability, T/C (second compound 3.16 µM, first compound 0.000316 µM): 1.47%
viability, T/C (second compound 3.16 µM, first compound 0.001 µM): 1.04%
viability, T/C (second compound 3.16 µM, first compound 0.00316 µM): 0.71%
viability, T/C (second compound 3.16 µM, first compound 0.01 µM): 0.73%
viability, T/C [24]: 0.71%
viability, T/C [25]: 0.75%
viability, T/C (second compound 10 µM, first compound 0.000316 µM): 0.51%
viability, T/C (second compound 10 µM, first compound 0.001 µM): 0.45%
viability, T/C (second compound 10 µM, first compound 0.00316 µM): 0.13%
viability, T/C (second compound 10 µM, first compound 0.01 µM): 0.3%
viability, T/C [30]: 0.22%
viability, T/C [31]: 0.48%
